Test results from ChEMBL document CHEMBL4422621, “Novel chalcone and flavone derivatives as selective and dual inhibitors of the transport proteins ABCB1 and ABCG2” (Eur J Med Chem, 2019).

Legend:
[1] = molecular target: T1, Multidrug resistance-associated protein 1 (Homo sapiens, UniProt P33527); assay: Inhibition of ABCC1 in human […] cells at 5 to 10 uM preincubated for 30 mins followed by calcein AM addition and measured every 60 secs for 1 hr by fluorescence assay; format: cell-based
[2] = molecular target: T2, Broad substrate specificity ATP-binding cassette transporter ABCG2 (Homo sapiens, UniProt Q9UNQ0); assay: Inhibition of ABCG2 (unknown origin) expressed in MDCK II BCRP cells assessed as effect on pheophorbide A accumulation after 120 mins by flow cytometric analysis; format: cell-based
T2 sequence (Q9UNQ0 whole entry): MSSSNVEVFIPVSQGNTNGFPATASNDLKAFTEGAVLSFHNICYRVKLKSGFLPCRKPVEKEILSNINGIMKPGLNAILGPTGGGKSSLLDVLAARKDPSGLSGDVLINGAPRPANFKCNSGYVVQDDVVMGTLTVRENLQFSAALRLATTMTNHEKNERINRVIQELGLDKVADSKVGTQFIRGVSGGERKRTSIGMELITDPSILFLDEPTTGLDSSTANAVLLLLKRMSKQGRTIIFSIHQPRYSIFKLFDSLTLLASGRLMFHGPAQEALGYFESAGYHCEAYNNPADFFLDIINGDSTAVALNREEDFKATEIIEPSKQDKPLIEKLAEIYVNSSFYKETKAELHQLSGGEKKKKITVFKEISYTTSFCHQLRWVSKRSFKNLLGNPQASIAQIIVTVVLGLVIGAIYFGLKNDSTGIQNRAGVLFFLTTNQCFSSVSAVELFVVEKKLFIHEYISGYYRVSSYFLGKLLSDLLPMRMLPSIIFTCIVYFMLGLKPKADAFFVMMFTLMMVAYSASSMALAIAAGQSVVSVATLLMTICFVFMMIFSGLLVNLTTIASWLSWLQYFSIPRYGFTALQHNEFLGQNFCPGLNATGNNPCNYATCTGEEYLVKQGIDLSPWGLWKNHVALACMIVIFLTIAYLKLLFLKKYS

[3] = molecular target: T3, ABCG2 (BCRP) (Homo sapiens, UniProt Q9UNQ0); assay: (§1) Inhibition of ABCG2 (unknown origin) expressed in MDCK II BCRP cells assessed as effect on heophorbide A accumulation at 5 to 10 uM after 120 mins by flow cytometric analysis relative to control; format: cell-based; conditions: MDCK II BCRP cells expressing ABCG2, probe pheophorbide A
T3 sequence (Q9UNQ0 whole entry): T2 sequence (Q9UNQ0 whole entry)

[4] = molecular target: T4, ATP-dependent translocase ABCB1 (Homo sapiens, UniProt P08183); assay: Inhibition of ABCB1 in human A2780/ADR cells at 5 to 10 uM preincubated for 30 mins followed by calcein AM addition and measured every 60 secs for 1 hr by fluorescence assay; format: cell-based
[5] = molecular target: T2, Broad substrate specificity ATP-binding cassette transporter ABCG2; assay: as §1; format: cell-based; conditions: 2 h
[6] = test system: ABCG2 (BCRP); assay: Therapeutic index, ratio of GI50 for MDCK2 cells expressing BCRP (unknown origin) to EC50 for ABCG2 (unknown origin) co-expressed in MDCK2 cells expressing BCRP (unknown origin); format: toxicity, cell-based; conditions: dog
[7] = Growth inhibition of MDCK2 cells expressing BCRP (unknown origin) after 72 hrs by MTT assay; format: ADME, cell-based, Canis lupus familiaris, MDCK-II; conditions: dog
[8] = Growth inhibition of MDCK2 cells after 72 hrs by MTT assay; format: cell-based, Canis lupus familiaris, MDCK-II; conditions: dog
[9] = molecular target: T4, ATP-dependent translocase ABCB1; assay: (§2) Inhibition of ABCB1 in human A2780/ADR cells preincubated for 30 mins followed by calcein AM addition and measured every 60 secs for 1 hr by fluorescence assay; format: cell-based
[10] = molecular target: T1, Multidrug resistance-associated protein 1; assay: Inhibition of ABCC1 in human […] cells preincubated for 30 mins followed by calcein AM addition and measured every 60 secs for 1 hr by fluorescence assay; format: cell-based
[11] = test system: ABCB1 (P-gp); assay: Therapeutic index, ratio of GI50 for human A2780/ADR cells to EC50 for ABCB1 in human A2780/ADR cells; format: toxicity, cell-based
[12] = Growth inhibition of human A2780/ADR cells after 72 hrs by MTT assay; format: cell-based
[13] = Growth inhibition of human A2780 cells after 72 hrs by MTT assay; format: cell-based
[14] = molecular target: ABCB1 (P-gp) (Homo sapiens, UniProt P08183); assay: as §2; format: cell-based; conditions: human, A2780/ADR cells, probe calcein AM; read-out: Imax
ABCB1 (P-gp) (Homo sapiens, UniProt P08183), sequence (P08183 whole entry): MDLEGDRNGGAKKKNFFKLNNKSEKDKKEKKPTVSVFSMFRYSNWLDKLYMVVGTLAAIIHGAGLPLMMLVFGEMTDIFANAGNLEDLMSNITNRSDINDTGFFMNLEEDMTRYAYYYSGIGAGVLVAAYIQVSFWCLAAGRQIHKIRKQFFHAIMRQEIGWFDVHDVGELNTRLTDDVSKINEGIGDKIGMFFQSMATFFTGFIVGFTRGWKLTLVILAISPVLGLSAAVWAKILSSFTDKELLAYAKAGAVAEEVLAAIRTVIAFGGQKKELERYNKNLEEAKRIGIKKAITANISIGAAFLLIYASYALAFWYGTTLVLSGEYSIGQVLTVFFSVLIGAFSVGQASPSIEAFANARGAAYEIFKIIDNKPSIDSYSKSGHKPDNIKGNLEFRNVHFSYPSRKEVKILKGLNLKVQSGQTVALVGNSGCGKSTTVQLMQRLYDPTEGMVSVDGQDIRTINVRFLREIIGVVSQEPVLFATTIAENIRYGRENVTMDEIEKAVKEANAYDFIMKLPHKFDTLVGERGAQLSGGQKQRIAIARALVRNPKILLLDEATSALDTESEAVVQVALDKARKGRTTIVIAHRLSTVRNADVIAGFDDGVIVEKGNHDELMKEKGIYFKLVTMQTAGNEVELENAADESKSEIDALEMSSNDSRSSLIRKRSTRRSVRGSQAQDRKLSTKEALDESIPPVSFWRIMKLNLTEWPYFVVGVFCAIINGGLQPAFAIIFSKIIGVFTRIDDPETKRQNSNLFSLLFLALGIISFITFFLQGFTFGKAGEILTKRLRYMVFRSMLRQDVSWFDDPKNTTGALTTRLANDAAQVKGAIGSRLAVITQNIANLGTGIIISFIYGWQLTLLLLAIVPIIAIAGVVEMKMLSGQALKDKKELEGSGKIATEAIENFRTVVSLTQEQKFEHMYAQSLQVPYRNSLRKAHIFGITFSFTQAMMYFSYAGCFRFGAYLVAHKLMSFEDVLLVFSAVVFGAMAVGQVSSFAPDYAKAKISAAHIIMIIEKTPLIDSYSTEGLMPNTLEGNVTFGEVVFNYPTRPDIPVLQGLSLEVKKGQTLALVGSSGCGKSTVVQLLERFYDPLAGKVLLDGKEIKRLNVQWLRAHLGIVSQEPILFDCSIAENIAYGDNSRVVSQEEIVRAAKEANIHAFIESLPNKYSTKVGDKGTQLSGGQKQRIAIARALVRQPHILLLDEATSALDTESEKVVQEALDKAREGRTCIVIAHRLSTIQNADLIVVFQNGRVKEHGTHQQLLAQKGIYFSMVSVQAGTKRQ

T1 sequence (P33527 whole entry): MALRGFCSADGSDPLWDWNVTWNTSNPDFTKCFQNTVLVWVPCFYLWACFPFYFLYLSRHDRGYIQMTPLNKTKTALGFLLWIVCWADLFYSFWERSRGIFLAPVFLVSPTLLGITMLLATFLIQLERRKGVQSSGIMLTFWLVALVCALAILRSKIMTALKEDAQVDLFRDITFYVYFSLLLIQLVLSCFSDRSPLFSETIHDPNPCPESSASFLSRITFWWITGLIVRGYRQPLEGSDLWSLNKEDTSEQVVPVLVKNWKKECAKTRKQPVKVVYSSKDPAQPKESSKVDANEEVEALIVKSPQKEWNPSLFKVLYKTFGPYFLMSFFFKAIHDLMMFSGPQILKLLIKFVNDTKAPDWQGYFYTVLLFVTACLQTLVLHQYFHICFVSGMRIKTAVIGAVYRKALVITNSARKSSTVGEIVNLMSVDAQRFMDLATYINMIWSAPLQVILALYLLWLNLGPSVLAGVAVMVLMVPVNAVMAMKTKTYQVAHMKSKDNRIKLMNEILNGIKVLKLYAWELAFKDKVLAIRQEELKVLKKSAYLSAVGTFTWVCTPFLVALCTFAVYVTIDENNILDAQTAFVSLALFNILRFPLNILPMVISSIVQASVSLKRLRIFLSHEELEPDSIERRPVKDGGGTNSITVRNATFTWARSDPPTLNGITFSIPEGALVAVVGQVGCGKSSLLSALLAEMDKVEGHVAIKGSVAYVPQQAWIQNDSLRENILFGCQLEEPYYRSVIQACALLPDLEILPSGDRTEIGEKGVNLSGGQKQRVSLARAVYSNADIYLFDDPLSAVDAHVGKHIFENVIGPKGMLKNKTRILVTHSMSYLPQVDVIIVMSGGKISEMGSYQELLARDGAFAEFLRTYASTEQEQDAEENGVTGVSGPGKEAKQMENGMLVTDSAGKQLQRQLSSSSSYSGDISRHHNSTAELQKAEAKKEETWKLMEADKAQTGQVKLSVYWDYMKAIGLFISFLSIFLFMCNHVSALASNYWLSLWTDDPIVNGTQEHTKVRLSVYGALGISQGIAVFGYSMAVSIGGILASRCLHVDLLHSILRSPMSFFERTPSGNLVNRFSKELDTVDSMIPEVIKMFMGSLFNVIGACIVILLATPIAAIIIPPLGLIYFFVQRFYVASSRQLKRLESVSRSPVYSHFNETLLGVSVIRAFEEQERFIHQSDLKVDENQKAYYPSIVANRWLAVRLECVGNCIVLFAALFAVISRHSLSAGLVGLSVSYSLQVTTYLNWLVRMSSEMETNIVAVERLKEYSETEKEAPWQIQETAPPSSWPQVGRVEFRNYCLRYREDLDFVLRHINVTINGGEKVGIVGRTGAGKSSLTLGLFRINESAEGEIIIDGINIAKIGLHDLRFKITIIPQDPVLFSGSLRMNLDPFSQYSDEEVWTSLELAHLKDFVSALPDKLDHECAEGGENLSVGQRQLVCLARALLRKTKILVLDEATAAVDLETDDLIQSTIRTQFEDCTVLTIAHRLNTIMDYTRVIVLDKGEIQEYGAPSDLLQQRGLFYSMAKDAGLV
T4 sequence (P08183 whole entry): as the sequence (P08183 whole entry) above

SMILES | inhibition (INH) [1] | IC50 [2] | inhibition at 2 h [3] | inhibition (INH) [4] | selectivity ratio [6] | GI50 at 72 h [7] | GI50 at 72 h [8] | other results
O=C(/C=C/c1cccs1)c1ccccc1O | Not Active | 10.5 µM | ≥ 25% | Not Active | – | – | – | –
O=C(/C=C/c1ccco1)c1ccc(O)cc1 | Not Active | – | – | Not Active | – | – | – | inhibition (INH) [5]: Not Active
COc1cc(C(=O)/C=C/c2cc(OC)c(OC)c(OC)c2)ccc1O | Not Active | 1.97 µM | ≥ 25% | Not Active | 4.8 | 9.38 µM | 7.56 µM | –
O=C(/C=C/c1ccccc1C(F)(F)F)c1ccc(O)cc1 | Not Active | 4.91 µM | ≥ 25% | Not Active | – | – | – | –
COc1cc(/C=C/C(=O)c2cccc(OCC(=O)Nc3ccc4c(c3)COC4=O)c2)cc(OC)c1OC | – | 9.93 µM | ≥ 25% | – | – | – | – | IC50 [9]: 11.7 µM
O=C(COc1cccc(C(=O)/C=C/c2ccccc2)c1)Nc1ccc2c(c1)COC2=O | – | 6.08 µM | ≥ 25% | – | 2.7 | 16.6 µM | 11.5 µM | –
COc1cc(/C=C/C(=O)c2ccc(OCC(=O)NCc3ccc4c(c3)OCO4)cc2)cc(OC)c1OC | – | 6.89 µM | ≥ 25% | – | 9.2 | 63.5 µM | 61.5 µM | –
COc1ccc(NC(=O)COc2ccc(C(=O)/C=C/c3cc(OC)c(OC)c(OC)c3)cc2)cc1OC | – | 3.37 µM | ≥ 25% | – | 8.2 | 27.7 µM | 18.9 µM | IC50 [10]: 12.5 µM
COc1cccc(/C=C/C(=O)c2ccc(OCC(=O)Nc3ccc(OC)c(OC)c3)cc2)c1 | – | 3.58 µM | ≥ 25% | – | 10.3 | 36.7 µM | 33.2 µM | –
COc1ccc(NC(=O)COc2ccc(C(=O)/C=C/c3c(F)cccc3F)cc2)cc1OC | – | 6.11 µM | ≥ 25% | – | 6 | 36.6 µM | 36.2 µM | –
O=C(/C=C/c1ccco1)c1ccccc1O | Not Active | 16.2 µM | ≥ 25% | Not Active | – | – | – | –
O=C(/C=C/c1ccc(OCc2ccccc2)cc1)c1ccc(O)cc1 | Not Active | 9.21 µM | ≥ 25% | Not Active | – | – | – | –
O=C(COc1c(-c2cccs2)oc2ccccc2c1=O)Nc1ccc2c(c1)COC2=O | – | – | – | – | – | – | – | inhibition (INH) [5]: Not Active
O=C(/C=C/c1ccc(OCc2ccc(Cl)cc2)cc1)c1ccc(O)cc1 | Not Active | 20 µM | ≥ 25% | Not Active | – | – | – | –
CCOc1ccc(/C=C/C(=O)c2ccc(O)cc2)cc1 | Not Active | 6.44 µM | ≥ 25% | Not Active | – | – | – | –
O=C(/C=C/c1cccs1)c1ccc(O)cc1 | Not Active | 18.2 µM | ≥ 25% | Not Active | – | – | – | –
Cc1ccc(-c2c(OCC(=O)Nc3cccc4ccccc34)oc3ccccc3c2=O)cc1 | – | – | – | – | – | – | – | IC50 [9]: 1.89 µM; inhibition (INH) [5]: Not Active; selectivity ratio [11]: 52.2; GI50 at 72 h [12]: 98.6 µM; GI50 at 72 h [13]: 68.7 µM
O=C(COc1c(-c2ccccc2Cl)oc2ccccc2c1=O)Nc1ccc2c(c1)COC2=O | – | 2.9 µM | ≥ 25% | – | 19.4 | 56.3 µM | 67.6 µM | IC50 [9]: 5.01 µM; selectivity ratio [11]: 13.8; GI50 at 72 h [12]: 69.2 µM; GI50 at 72 h [13]: 61.1 µM
COc1ccc(-c2c(OCC(=O)Nc3cccc4ccccc34)oc3ccccc3c2=O)cc1 | – | 5.09 µM | ≥ 25% | – | > 19.6 | > 100 µM | > 100 µM | IC50 [9]: 1.41 µM; Emax at 1 h [14]: 51%
Cc1ccc(-c2c(OCC(=O)Nc3ccc(Br)cc3)oc3ccccc3c2=O)cc1 | – | – | – | – | – | – | – | inhibition (INH) [5]: Not Active
COc1cc(/C=C/C(=O)c2cccc(O)c2)cc(OC)c1OC | Not Active | 4.28 µM | ≥ 25% | Not Active | – | – | – | –
COc1ccc(-c2c(OCC(=O)Nc3cccc4ccccc34)oc3ccccc3c2=O)cc1OC | – | 3.75 µM | ≥ 25% | – | > 26.7 | > 100 µM | > 100 µM | IC50 [9]: 5.43 µM; selectivity ratio [11]: 8.3; GI50 at 72 h [12]: 45.3 µM; GI50 at 72 h [13]: 43.6 µM
O=C(/C=C/c1ccc(OCc2ccc(Cl)cc2Cl)cc1)c1ccc(O)cc1 | Not Active | – | – | Not Active | – | – | – | inhibition (INH) [5]: Not Active
COc1ccc(-c2c(OCC(=O)Nc3ccc(Br)cc3)oc3ccccc3c2=O)cc1 | – | – | – | – | – | – | – | inhibition (INH) [5]: Not Active
CCCCOc1ccc(/C=C/C(=O)c2ccc(O)cc2)cc1 | Not Active | 7.29 µM | ≥ 25% | Not Active | – | – | – | –
O=C(COc1c(-c2ccco2)oc2ccccc2c1=O)Nc1ccc2c(c1)COC2=O | – | – | – | – | – | – | – | inhibition (INH) [5]: Not Active
CCCOc1ccc(/C=C/C(=O)c2ccc(O)cc2)cc1 | Not Active | 4.74 µM | ≥ 25% | Not Active | 6 | 28.5 µM | 31.1 µM | –
O=C(/C=C/c1c(F)cccc1F)c1ccc(O)cc1 | Not Active | 7.22 µM | ≥ 25% | Not Active | – | – | – | –
